Here are results for 14 molecules from PubChem BioAssay AID328 (DTP/NCI, 2004).

Values joined by “and” are separate entries in the source; they are usually repeats but may differ in a detail not shown here. Identical values can stand only once. Toxic doses and inconclusive results are not listed. Starred links: 1 amine or outer side, 2 acyl side, 3 side chain; linkers in the order of their positions; H or OH if unused. Positions of bridges follow the written chain, without caps; N, C: chain ends. Non-standard residues stand in square brackets, D forms with d. Residues, ends and D or L forms follow the SMILES beside them. Chains are numbered I, II in the order given. Actinocin(1to9) = Cc1c2oc3c(C)ccc(C(=O)[*:2])c3nc-2c(C(=O)[*:1])c(N)c1=O; X2 = CC(=O)OC1CC(C)N([*:1])C1C(=O)[*:2]; X1 = CC1CC(=O)C(C(=O)[*:2])N1[*:1]; NMeV = CN[CH](C(=O)O)C(C)C; NMeA = CN[CH](C)C(=O)O; Sar = CNCC(=O)O

The assay relates to BDF1 mice, P388 leukemia ip, median survival T/C. In words: NCI In Vivo Anticancer Drug Screen. Data for tumor model P388 Leukemia (intraperitoneal) in B6D2F1 (BDF1) mice. To be noted: endpoint: median survival time, higher = longer survival. Summed up:
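Compound-treated tumour-bearing mice were compared with vehicle-treated controls. Survival was recorded, and the value is the treated-group measurement divided by the control-group measurement (T/C).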

Where [1] appears, read: dose: 25.0 mg/kg/injection, schedule: Q01DX009 (ip), vehicle: saline with Tween-80.
Setting [2] is: dose: 50.0 mg/kg/injection, schedule: Q01DX009 (ip), vehicle: saline with Tween-80.
Where [3] appears, read: dose: 100.0 mg/kg/injection, schedule: Q01DX009 (ip), vehicle: saline with Tween-80.
The mark [4] stands for this setting: dose: 50.0 mg/kg/injection, schedule: Q01DX009 (ip), vehicle: saline.
Setting [5] is: dose: 100.0 mg/kg/injection, schedule: Q04DX003 (ip), vehicle: saline.
Setting [6] is: dose: 200.0 mg/kg/injection, schedule: Q04DX003 (ip), vehicle: saline.
[7] abbreviates: dose: 200.0 mg/kg/injection, schedule: Q01DX009 (ip), vehicle: saline with Tween-80.

For the molecule `N/C(=N\[N+](=O)[O-])N(CCCCl)N=O`, the T/C reads like this: under setting [1], 103 % of control; (dose: 27.0 mg/kg/injection, schedule: Q01DX009 (ip), vehicle: Klucel (hydroxypropylcellulose) (HPC)) 152 % of control; (dose: 33.0 mg/kg/injection, schedule: Q01DX009 (ip), vehicle: saline with Tween-80) 108 % of control; (dose: 37.5 mg/kg/injection, schedule: Q04DX003 (ip), vehicle: saline sonified) 100 % of control; (dose: 40.0 mg/kg/injection, schedule: Q01DX009 (ip), vehicle: Klucel (hydroxypropylcellulose) (HPC)) 157 % of control; under setting [2], 107 % of control. For the same molecule, the T/C runs as follows: (dose: 60.0 mg/kg/injection, schedule: Q01DX009 (ip), vehicle: Klucel (hydroxypropylcellulose) (HPC)) 166 % of control; (dose: 75.0 mg/kg/injection, schedule: Q04DX003 (ip), vehicle: saline sonified) 100 % of control; under setting [3], 120 % of control; (dose: 100.0 mg/kg/injection, schedule: Q04DX003 (ip), vehicle: saline with Tween-80) 109 % of control; (dose: 112.5 mg/kg/injection, schedule: Q01DX009 (ip), vehicle: saline with Tween-80) 154 % of control; (dose: 150.0 mg/kg/injection, schedule: Q04DX003 (ip), vehicle: saline sonified) 100 % of control. For the same molecule, the T/C (dose: 176.0 mg/kg/injection, schedule: Q04DX003 (ip), vehicle: saline sonified) was 100 % of control and the T/C (dose: 200.0 mg/kg/injection, schedule: Q04DX003 (ip), vehicle: saline with Tween-80) was 122 % of control.
Turning to `O=C(Nc1cccc2c(OC(=O)C(Cl)Cl)c(N=Nc3ccc(S(=O)(=O)Nc4nccs4)cc3)cc(N=Nc3ccc(S(=O)(=O)Nc4nccs4)cc3)c12)C(Cl)Cl` (tested in a mixture with another compound), the T/C is 103 % of control (dose: 50.0 mg/kg/injection, schedule: Q01DX005 (ip), vehicle: saline with Tween-80); 110 % of control under setting [2]; 103 % of control (dose: 100.0 mg/kg/injection, schedule: Q01DX005 (ip), vehicle: saline with Tween-80); 124 % of control under setting [3].
As to `NNC(=O)c1cccc(N)c1`, the T/C is, setting by setting: under setting [1], 100 % of control; under setting [2], 90 % of control; under setting [3], 100 % of control.
For `CC([NH-])C(=O)O.O=C(O)CN(CC(=O)O)CC(=O)O.[Co+2]`, the T/C by setting is: under setting [4], 110 % of control and 113 % of control; (dose: 66.0 mg/kg/injection, schedule: Q01DX009 (ip), vehicle: saline) 114 % of control; under setting [5], 87 % of control; (dose: 150.0 mg/kg/injection, schedule: Q01DX009 (ip), vehicle: saline) 104 % of control; (dose: 200.0 mg/kg/injection, schedule: Q01DX009 (ip), vehicle: saline) 104 % of control; under setting [6], 104 % of control. Moreover, the T/C (dose: 400.0 mg/kg/injection, schedule: Q04DX003 (ip), vehicle: saline) was 91 % of control.
Turning to `CCCCCCCCCCCCCCC1C(=O)NN(c2ccccc2)C1=O` (stereo not given), the T/C is 108 % of control (dose: 37.5 mg/kg/injection, schedule: Q01DX009 (ip), vehicle: saline with Tween-80); 115 % of control (dose: 75.0 mg/kg/injection, schedule: Q01DX009 (ip), vehicle: saline with Tween-80); 122 % of control (dose: 150.0 mg/kg/injection, schedule: Q01DX009 (ip), vehicle: saline with Tween-80).
`CC1CN1P1(N2CC2C)=NP(N2CC2C)(N2CC2C)=NP(N2CC2C)(N2CC2C)=N1` (stereo not given): the T/C reads like this: (dose: 4.4 mg/kg/injection, schedule: Q01DX009 (ip), vehicle: saline) 122 % of control; (dose: 6.6 mg/kg/injection, schedule: Q01DX009 (ip), vehicle: saline) 124 % of control; (dose: 15.0 mg/kg/injection, schedule: Q01DX009 (ip), vehicle: saline) 161 % of control; (dose: 16.5 mg/kg/injection, schedule: Q01DX009 (ip), vehicle: saline) 155 % of control; (dose: 25.0 mg/kg/injection, schedule: Q01DX009 (ip), vehicle: saline) 160 % of control and 164 % of control; (dose: 25.0 mg/kg/injection, schedule: Q04DX003 (ip), vehicle: saline) 114 % of control. Moreover, the T/C is 169 % of control (dose: 37.5 mg/kg/injection, schedule: Q01DX009 (ip), vehicle: saline); 203 % of control under setting [4]; 166 % of control and 214 % of control under setting [5]; 102 % of control under setting [6].
Consider `O=C1OC(c2ccccc2)CC1NCc1ccccc1` (stereo not given), for which the T/C is 100 % of control (dose: 100.0 mg/kg/injection, schedule: Q01DX001 (ip), vehicle: saline with Tween-80); 100 % of control (dose: 200.0 mg/kg/injection, schedule: Q01DX001 (ip), vehicle: saline with Tween-80); 100 % of control (dose: 400.0 mg/kg/injection, schedule: Q01DX001 (ip), vehicle: saline with Tween-80).
Take `NC(=S)N/N=C\c1c[nH]c2nccnc12`: the T/C is 106 % of control (dose: 25.0 mg/kg/injection, schedule: Q01DX009 (ip), vehicle: water); 92 % of control (dose: 50.0 mg/kg/injection, schedule: Q01DX009 (ip), vehicle: water); 100 % of control (dose: 100.0 mg/kg/injection, schedule: Q01DX009 (ip), vehicle: water); 86 % of control (dose: 400.0 mg/kg/injection, schedule: Q01DX009 (ip), vehicle: water).
In the case of `O=C(CC(c1ccccc1)C1CCCN(c2ccccc2)S1(=O)=O)c1ccccc1` (stereo not given), the T/C under setting [2] was 109 % of control, the T/C under setting [3] is 114 % of control and the T/C under setting [7] was 97 % of control.
In the case of `C[C@H]1/C(=C/C(=O)OCCN(C)C)CC[C@H]2[C@H]1C(=O)C[C@H]1C(C)(C)[C@@H](O)CC[C@]21C`, the T/C (dose: 4.0 mg/kg/injection, schedule: Q01DX010 (ip), vehicle: saline) was 100 % of control; the T/C (dose: 8.0 mg/kg/injection, schedule: Q01DX010 (ip), vehicle: saline) was 100 % of control; the T/C (dose: 16.0 mg/kg/injection, schedule: Q01DX010 (ip), vehicle: saline) was 104 % of control; the T/C (dose: 32.0 mg/kg/injection, schedule: Q01DX010 (ip), vehicle: saline) is 95 % of control and 104 % of control.
For `COc1cc2c(cc1OC)C(c1ccc(N=Cc3ccc(N(C)C)cc3)cc1)N(C(=S)Nc1cc(Cl)ccc1Cl)CC2` (stereo not given), the T/C is 97 % of control under setting [1]; 93 % of control and 97 % of control under setting [2]; 95 % of control under setting [3]; 89 % of control under setting [7].
For the molecule `CC(=O)OC1CC(C)N2C(=O)C(C(C)C)NC(=O)C(NC(=O)c3ccc(C)c4oc5c(C)c(=O)c(N)c(C(=O)NC6C(=O)NC(C(C)C)C(=O)N7C(C)CC(=O)C7C(=O)N(C)CC(=O)N(C)C(C)C(=O)OC6C)c-5nc34)C(C)OC(=O)C(C(C)C)N(C)C(=O)CN(C)C(=O)C12` (stereo not given) (I: TV[X1][Sar][NMeA] / II: TV[X2][Sar][NMeV]; ester I:1-I:C, II:1-II:C; linker I:N-II:N via Actinocin(1to9); configuration not given here), the T/C runs as follows: (dose: 0.05 mg/kg/injection, schedule: Q01DX009 (ip), vehicle: saline + alcohol) 100 % of control; (dose: 0.1 mg/kg/injection, schedule: Q01DX009 (ip), vehicle: saline + alcohol) 117 % of control; (dose: 0.15 mg/kg/injection, schedule: Q04DX003 (ip), vehicle: saline + alcohol) 98 % of control; (dose: 0.3 mg/kg/injection, schedule: Q04DX003 (ip), vehicle: saline + alcohol) 113 % of control; (dose: 0.4 mg/kg/injection, schedule: Q01DX009 (ip), vehicle: saline + alcohol) 156 % of control; (dose: 0.8 mg/kg/injection, schedule: Q01DX009 (ip), vehicle: saline + alcohol) 189 % of control. In addition, the T/C by setting is: (dose: 1.2 mg/kg/injection, schedule: Q04DX003 (ip), vehicle: saline + alcohol) 153 % of control; (dose: 2.4 mg/kg/injection, schedule: Q04DX003 (ip), vehicle: saline + alcohol) 202 % of control; (dose: 6.4 mg/kg/injection, schedule: Q01DX001 (ip), vehicle: saline + alcohol) 159 % of control.
On to `CCOc1ccn(CC(=O)c2ccc(Cl)s2)c(=O)n1`, for which the T/C reads like this: under setting [2], 106 % of control; under setting [3], 113 % of control; under setting [7], 97 % of control; (dose: 400.0 mg/kg/injection, schedule: Q01DX009 (ip), vehicle: saline with Tween-80) 106 % of control.
As to `COc1ccc(C(O)C2CCCN(C)S2(=O)=O)cc1` (stereo not given), the T/C reads like this: (dose: 100.0 mg/kg/injection, schedule: Q04DX002 (ip), vehicle: saline with Tween-80) 117 % of control; (dose: 200.0 mg/kg/injection, schedule: Q04DX002 (ip), vehicle: saline with Tween-80) 112 % of control; (dose: 400.0 mg/kg/injection, schedule: Q04DX002 (ip), vehicle: saline with Tween-80) 111 % of control.
